Reference: paper PMC3493614, “Structural and Binding Properties of Two Paralogous Fatty Acid Binding Proteins of Taenia solium Metacestode” (PLoS Neglected Tropical Diseases, 2012)
Where “and” joins values, the source holds several entries; their conditions need not be identical. Equal values may be shown once. Read-outs that look alike come from different tables or passages of the source.

Columns and labels:
recTsMFABP2 [1] = biological target: T1, recTsMFABP2 (Taenia solium, UniProt F2WVQ3); experiment: Fluorometric ligand binding assay, recombinant TsMFABP2; conditions: for Vmax: rate calculated from relative fluorescence (Vmax = Fmax), ligand 0.1-10 µM (FA analogs) or 0.1-10 mM (retinol); for Vmax/K d (binding rate constant): ratio of Vmax to K d
T1 sequence (F2WVQ3 entry or part of it): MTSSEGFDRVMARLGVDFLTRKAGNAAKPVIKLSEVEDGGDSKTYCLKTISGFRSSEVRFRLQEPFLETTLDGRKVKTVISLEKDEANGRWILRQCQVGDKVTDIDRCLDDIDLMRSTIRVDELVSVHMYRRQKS
Description: (§1) All the proteins were delipidated for 2 h using Sephadex-LH (Sigma-Aldrich) prior to assay. The ligand binding profile of the native and rTsMFABPs were detected spectrofluorometrically using fluorescent FA analogs, including 11-([5-dimethylaminonaphthalene-1-sulfonyl]amino)undecannoic acid (DAUDA), dansyl-DL-α-aminocaprylic acid (DACA) (Molecular Probes), retinol (Sigma-Aldrich) and naturally fluorescent cis-parinaric acid (cPnA; Molecular Probes). Fluorescence emission spectra were recorded at 25°C with a total volume of 200 µl per well using black 96-well Microfluor 1 plates and an Infinite M-200 automated multi-detector (Tecan). The emission and excitation wavelengths for DAUDA, DACA, retinol and cPnA were 519, 519, 325 and 420 nm, and 345, 350, 350 and 315 nm, respectively. We included the TsM 120-kDa protein (10 µM) and recombinant 18 kDa (5 µM; a subunit of the TsM 120-kDa protein), which were proven not to have FA-binding activity, as negative controls during the measurements. All fluorescent stock compounds (10 mM dissolved in ethanol) were stored at −20°C in a dark room and were freshly diluted in ethanol prior to use. The equilibrium dissociation constants (K d) of the proteins bound to DAUDA, retinol and cPnA were estimated by adding increasing concentrations of respective ligands (0.1–10 µM for FA analogs and 0.1–10 mM for retinol) in a micro-quartz plate. Fluorescence intensities were normalized to the peak fluorescence intensity and corrected for background fluorescence of the ligand alone at each concentration. Corrected data were analyzed using the one-site saturation model and best fit algorithm contained in SigmaPlot9 software (y = V max X/K m+X, where y is relative fluorescence and X is concentrations of lipid ligand. V max can be substituted as Fmax [maximum fluorescence]). Competition assays were carried out by monitoring the change in fluorescence intensity at the peak transmission wavelength measured for either rTsMFABPs:DAUDA, rTsMFABPs:retinol or rTsMFABPs:cPnA complex in the presence of 10-fold excess oleic acid.
(§2) The partially purified native and recombinant proteins were subjected to delipidation. Each of the proteins (1 µM) was used in a hydrophobic ligand binding assay against the polarity-sensitive fluorophore-tagged FA analogs (0.1 µM) and retinol (5 mM). […] The TsMFABP2 also bound to DAUDA, although its specific activity was lower than that of the TsMFABP1. […] The retinol-binding activity of rTsMFABP2 appeared to be higher than that of rTsMFABP1. […] No binding activity was detected in the reactions with the TsM 120-kDa and recombinant 18-kDa proteins, which were used as negative controls.

recTsMFABP1 [2] = biological target: T2, recTsMFABP1 (Taenia solium, UniProt Q2XNL7); experiment: Fluorometric ligand binding assay, recombinant TsMFABP1; conditions: for Kd / Vmax: one-site saturation model, 25°C; for Kd: ligand 0.1-10 µM; for Vmax: rate calculated from relative fluorescence (Vmax = Fmax), ligand 0.1-10 µM (FA analogs) or 0.1-10 mM (retinol); for Vmax/K d (binding rate constant): ratio of Vmax to K d
T2 sequence (Q2XNL7 entry or part of it): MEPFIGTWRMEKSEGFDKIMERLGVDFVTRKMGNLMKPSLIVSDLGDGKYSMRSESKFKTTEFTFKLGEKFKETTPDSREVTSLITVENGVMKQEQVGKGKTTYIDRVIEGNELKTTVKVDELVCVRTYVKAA
Description: as §1, §2

recTsMFABP1 [3] = biological target: T2, recTsMFABP1; experiment: as above; conditions: rTsMFABP1:DAUDA complex; oleic acid 5 µM (Figure 2B); protein 1 µM, DAUDA 0.1 µM
recTsMFABP2 [4] = biological target: T1, recTsMFABP2; experiment: Fluorometric ligand binding assay, recombinant TsMFABP2; conditions: rTsMFABP2:retinol complex; oleic acid 5 µM (Figure 2D); protein 1 µM, retinol 5 mM
[5] = protein 1 µM, FA analog 0.1 µM, data not shown
[6] = one-site saturation model, ligand 0.1-10 µM, 25°C, read-out: K d
[7] = one-site saturation model, 25°C

Row | SMILES | Binding (fluorescence interaction mode) (recTsMFABP2 [1]; [5]) | Binding (fluorescence interaction mode) (recTsMFABP1 [2]; [5]) | Kd (recTsMFABP2 [1]; [6]) [nM] | Vmax (recTsMFABP2 [1]; [7]) | Vmax/K d (binding rate constant) (recTsMFABP2 [1]) | Kd (recTsMFABP1 [2]) [nM] | Vmax (recTsMFABP1 [2]) | Vmax/K d (binding rate constant) (recTsMFABP1 [2]) | Kd (recTsMFABP2 [1]) [nM] | Vmax/K d (binding rate constant) (recTsMFABP2 [1]; listed as retinol) | Vmax/K d (binding rate constant) (recTsMFABP1 [2]; listed as retinol) | Competition with DAUDA binding (recTsMFABP1 [3]) | Competition with retinol binding (recTsMFABP2 [4])
1 | CCCCCCC(NS(=O)(=O)c1cccc2c(N(C)C)cccc12)C(=O)O (racemic) [DACA, dansyl-DL-α-aminocaprylic acid] | interaction modes comparable to those with DAUDA | interaction modes comparable to those with DAUDA |  |  |  |  |  |  |  |  |  |  | 
2 | CN(C)c1cccc2c(S(=O)(=O)NCCCCCCCCCCC(=O)O)cccc12 [DAUDA, 11-([5-dimethylaminonaphthalene-1-sulfonyl]amino)undecannoic acid] |  |  | 9400 ± 890 | 364.2±3.5 | 38.7 and 38.7±3.94 | 2150 ± 140 | 299.5±3.0 | 139.3 and 139.3±12.7 |  |  |  |  | 
3 | CC1=C(/C=C/C(C)=C/C=C/C(C)=C/CO)C(C)(C)CCC1 [Retinol, retinol] |  |  |  | 207.1±19.6 | 211.3±20.3 |  | 306.3±31.4 | 172.1±15.5 | 980000 ± 80000 | 211.3 | 172.1 |  | 
4 | CC\C=C/C=C/C=C/C=C\CCCCCCCC(=O)O [cPnA, cis-parinaric acid] |  |  | 640 ± 40 | 309.1±28.4 | 483.0 and 483.0±47.1 | 280 ± 20 | 608.4±57.8 | 2172.9 and 2172.9±214.6 |  |  |  |  | 
5 | CCCCCCCC/C=C\CCCCCCCC(=O)O [oleic acid] |  |  |  |  |  |  |  |  |  |  |  | competitively inhibited by oleic acid in a dose-dependent manner | significant replacement of retinol from the binding site
